US9012487B2, “Bicyclo-pyrazoles active as kinase inhibitors” (Nerviano Medical Sciences S.r.l., priority 2006, dated 2015)
Counter-ions that a name gives are not always drawn.

Assays:
IGF-1R = biological target: T1, IGF-1R (Homo sapiens, UniProt P08069, M1123C/Y1125N); assay: Inhibition assay for IGF-1R kinase activity (Scintillation Proximity Assay); settings: read-out: IGF1R IC50 (μM) Biochemical assay
T1 construct: made in house; host or cells: baculovirus; virus made in Sf21, protein expressed in H5 insect cells
Description: Human cDNA was used as template for amplification by polymerase chain reaction (PCR) of the whole cytoplasmic portion of IGF-1R (amino acid residues 960-1367), which includes the entire kinase domain. PCR was conducted using the forward primer sequence 5′-[…]-3′ (SEQ ID NO: 1) and the reverse primer sequence 5′-[…]-3′ (SEQ ID NO: 2). In order to facilitate subsequent cloning steps, both primers comprise a BamHI restriction endonuclease site sequence. The PCR product was cloned into a transfer vector for the baculovirus expression system, pVL1393 (Pharmingen), modified to include the sequence encoding the Glutathione S-transferase (GST) fusion protein and a PreScission cleavage site upstream of the inserted gene of interest. The GST-IGF-1R coding region corresponds to nucleic acid residues of 4168-6084. The final protein encoded by the open reading frame corresponds to a fusion protein of 639 amino acids, shown in SEQ ID NO: 3 (FIG. 1). […]
The inhibitory activity of putative kinase inhibitors and the potency of selected compounds was determined using a Scintillation Proximity Assay (SPA) in 96 well microtiter plate format. […] When a radioactively labeled phosphate moiety is transferred by the kinase to the biotinylated peptide, this stimulates light emission by the bead, which is measured in a scintillation counter. […]

[1] = test system: IGF-1 induced S6 ribosomal protein phosphorylation; assay: Growth factor induced S6 ribosomal protein phosphorylation in primary human fibroblasts (NHDF); type: cell-based; settings: normal human dermal fibroblasts (NHDF), stimulated with 10 nM IGF-1; read-out: Inhibition of IGF1R-induced S6 phosphorytation IC50
Description: Growth Factor Induced S6 Ribosomal Protein Phosphorylation in Primary Human Fibroblasts. Phosphorylation of S6 ribosomal protein in response to growth factor stimulation of normal human dermal fibroblasts (NHDF) was used to assess compound potency in inhibiting IGF-1 induced signal transduction in cells, and selectivity towards EGF and PDGF stimulus. NHDF cells obtained from PromoCell (Heidelberg, Germany), were maintained at 37° C. in a humidified atmosphere with 5% CO2 in complete Fibroblast Growth Medium (PromoCell). For assay, NHDF were seeded in 384-well tissue culture plates (clear- and flat-bottomed black plates; Matrix Technologies Inc., Hudson, N.H., USA) at a density of 5000 cells/well in serum-free medium containing 0.1% bovine serum albumin (BSA) and incubated for 5 days. […] Fluorescence images in the DAPI and Cy5™ channels were automatically acquired, stored and analysed using a Cellomics ArrayScan™ IV instrument (Cellomics, Pittsburgh, USA); the Cellomics Cytotoxicity Algorithm was used to quantify cytoplasmic fluorescence associated with phospho-S6 (Cy5™ signal parameter: “Mean Lyso Mass-pH”) for each cell in 10 fields/well, and eventually expressed as a mean population value. […]

IGF1R = biological target: T2, IGF1R (Homo sapiens, UniProt P08069); assay: Western blot analysis of receptor phosphorylation following stimulation with IGF-1 in MCF-7 human breast cancer cells; type: cell-based; settings: MCF-7 starved cells stimulated with 10 nM IGF1; increasing concentrations of compound; Western blot band of pIGF1R (FIG. 2)
T2 construct: endogenous in cells; host or cells: MCF-7 (ATCC #HTB-22)
Description: Treatment of starved MCF-7 cells with 10 nM IGF1 induced receptor auto-phosphorylation as shown by the appearance of a more intense band of phosphorylated IGF1R (pIGF1R).
Western Blot Analysis of Receptor Phosphorylation Following Stimulation with IGF-1 in MCF-7 Human Breast Cancer Cells
MCF-7 cells (ATCC #HTB-22) were seeded in 12-well tissue culture plates at 2×10^5 cells/well in E-MEM medium (MEM+Earle's BSS+2 mM glutamine+0.1 mM non-essential amino acids)+10% FCS, and incubated overnight at 37° C., 5% CO2, 100% relative humidity. Cells were then starved by replacing E-MEM+10% FCS with E-MEM+0.1% BSA, and incubating overnight. After this incubation, wells were treated with desired concentrations of compound for 1 hour at 37° C., and were then stimulated with 10 nM recombinant human IGF-1 (Invitrogen, Carlsbad, Calif., USA) for 10 minutes at 37° C. Cells were then washed with PBS and lysed in 100 microL/well cell lysis buffer (M-PER Mammalian Protein Extraction Reagent [Product #78501, Pierce, Rockford, Ill., USA]+10 mM EDTA+Protease inhibitor cocktail [Sigma-Aldrich product #P8340]+phosphatase inhibitor cocktail [Sigma-Aldrich products #P2850+#P5726]). […]

T2 sequence (P08069 31-1367): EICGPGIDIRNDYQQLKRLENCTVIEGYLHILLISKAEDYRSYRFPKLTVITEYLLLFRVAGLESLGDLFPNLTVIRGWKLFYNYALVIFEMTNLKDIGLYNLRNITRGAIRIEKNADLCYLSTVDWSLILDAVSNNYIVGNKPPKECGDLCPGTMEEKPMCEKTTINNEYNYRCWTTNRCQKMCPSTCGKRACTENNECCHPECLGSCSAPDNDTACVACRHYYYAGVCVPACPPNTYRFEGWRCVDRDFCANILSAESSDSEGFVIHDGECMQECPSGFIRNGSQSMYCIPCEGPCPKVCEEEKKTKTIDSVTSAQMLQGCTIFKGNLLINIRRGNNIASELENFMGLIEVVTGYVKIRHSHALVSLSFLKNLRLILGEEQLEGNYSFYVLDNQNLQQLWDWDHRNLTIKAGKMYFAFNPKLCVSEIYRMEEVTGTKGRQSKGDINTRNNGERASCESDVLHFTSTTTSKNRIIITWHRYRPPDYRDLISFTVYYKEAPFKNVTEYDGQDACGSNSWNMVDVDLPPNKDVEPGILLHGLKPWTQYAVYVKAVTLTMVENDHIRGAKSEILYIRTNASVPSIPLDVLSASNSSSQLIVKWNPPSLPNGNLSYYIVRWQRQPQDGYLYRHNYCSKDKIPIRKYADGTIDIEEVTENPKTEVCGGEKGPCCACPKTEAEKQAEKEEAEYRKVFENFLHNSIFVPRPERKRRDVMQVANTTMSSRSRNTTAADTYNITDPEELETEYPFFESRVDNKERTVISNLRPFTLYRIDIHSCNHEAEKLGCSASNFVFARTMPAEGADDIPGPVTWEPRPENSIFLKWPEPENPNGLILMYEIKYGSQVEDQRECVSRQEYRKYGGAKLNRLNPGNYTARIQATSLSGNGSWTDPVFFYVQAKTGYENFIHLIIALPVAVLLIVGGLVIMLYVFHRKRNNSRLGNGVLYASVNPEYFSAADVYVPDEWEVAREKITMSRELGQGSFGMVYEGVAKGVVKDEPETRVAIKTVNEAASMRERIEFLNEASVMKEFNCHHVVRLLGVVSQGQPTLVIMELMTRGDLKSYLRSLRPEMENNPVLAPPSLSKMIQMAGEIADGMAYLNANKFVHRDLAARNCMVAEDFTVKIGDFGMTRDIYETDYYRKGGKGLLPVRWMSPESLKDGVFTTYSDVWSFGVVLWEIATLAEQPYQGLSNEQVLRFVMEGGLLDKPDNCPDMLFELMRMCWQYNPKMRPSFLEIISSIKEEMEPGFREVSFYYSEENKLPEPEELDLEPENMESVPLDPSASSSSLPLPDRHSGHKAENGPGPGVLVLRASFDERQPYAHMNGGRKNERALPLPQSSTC
T1 sequence (P08069 with tags, fused parts or gaps M1123C/Y1125N): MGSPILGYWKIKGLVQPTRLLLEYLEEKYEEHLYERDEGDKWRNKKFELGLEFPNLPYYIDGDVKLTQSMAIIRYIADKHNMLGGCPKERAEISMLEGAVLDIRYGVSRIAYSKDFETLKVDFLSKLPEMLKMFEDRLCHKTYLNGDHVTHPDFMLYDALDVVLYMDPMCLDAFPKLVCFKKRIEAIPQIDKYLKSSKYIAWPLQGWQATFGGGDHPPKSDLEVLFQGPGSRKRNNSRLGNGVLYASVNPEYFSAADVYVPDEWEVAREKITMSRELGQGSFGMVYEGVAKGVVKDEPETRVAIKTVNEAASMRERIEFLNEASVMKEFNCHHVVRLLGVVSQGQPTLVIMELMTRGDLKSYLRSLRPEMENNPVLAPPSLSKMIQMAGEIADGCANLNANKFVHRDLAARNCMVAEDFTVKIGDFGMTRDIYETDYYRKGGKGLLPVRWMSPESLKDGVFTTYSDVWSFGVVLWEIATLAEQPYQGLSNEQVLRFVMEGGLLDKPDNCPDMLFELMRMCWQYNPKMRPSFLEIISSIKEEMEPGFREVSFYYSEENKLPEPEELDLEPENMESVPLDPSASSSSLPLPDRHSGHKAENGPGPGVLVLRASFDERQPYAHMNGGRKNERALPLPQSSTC

`CCOC(=O)n1nc(NC(=O)c2ccc(N3CCN(C)CC3)c(N(C)CCOC)c2)c2c1CNC2` [Example 24, 3-[3-[(2-Methoxy-ethyl)-methyl-amino]-4-(4-methyl-piperazin-1-yl)-benzoylamino]-5,6-dihydro-4H-pyrrolo[3,4-c]pyrazole-1-carboxylic acid ethyl ester hydrochloride] showed an IC50 (IGF-1R) of 0.34 µM and an IC50 [1] of 3050 nM.

With `CN1CCN(c2ccc(C(=O)Nc3n[nH]c4c3CN(S(=O)(=O)c3cc(F)cc(F)c3)C4(C)C)cc2)CC1` [Example 43, N-[5-(3,5-difluoro-benzenesulfonyl)-6,6-dimethyl-1,4,5,6-tetrahydro-pyrrolo[3,4-c]pyrazol-3-yl]-4-(4-methyl-piperazin-1-yl)-benzamide] the “inhibition of IGF1R auto-phosphorylation” value (IGF1R) was “inhibition of IGF1-induced IGF1R auto-phosphorylation”.

`CN1CCN(c2ccc(C(=O)Nc3n[nH]c4c3CN(S(=O)(=O)c3cc(F)cc(F)c3)C4(C)C)c(F)c2)CC1` [Example 49, N-[5-(3,5-Difluoro-benzenesulfonyl)-6,6-dimethyl-1,4,5,6-tetrahydro-pyrrolo[3,4-c]pyrazol-3-yl]-2-fluoro-4-(4-methyl-piperazin-1-yl)-benzamide] was tested, and the “inhibition of IGF1R auto-phosphorylation” value (IGF1R) was “inhibition of IGF1-induced IGF1R auto-phosphorylation”.
